Source: patent US5952354A, “Tris carbamic acid esters: inhibitors of cholesterol absorption” (priority 1993, dated 1999)
Read-outs that look alike come from different tables or passages of the source.

Columns and labels:
[1] = target: T1, cholesterol esterase (EC 3.1.1.13) (CEH) (Bos taurus, UniProt P30122); assay: inhibition of cholesteryl ester formation by cholesterol esterase (CEH), procedure of Field; format: biochemical, bovine
T1 construct: purchased Sigma Company, St. Louis, Mo., U.S.A. C-1892; host or cells: bovine pancreas
T1 sequence (P30122 19-597): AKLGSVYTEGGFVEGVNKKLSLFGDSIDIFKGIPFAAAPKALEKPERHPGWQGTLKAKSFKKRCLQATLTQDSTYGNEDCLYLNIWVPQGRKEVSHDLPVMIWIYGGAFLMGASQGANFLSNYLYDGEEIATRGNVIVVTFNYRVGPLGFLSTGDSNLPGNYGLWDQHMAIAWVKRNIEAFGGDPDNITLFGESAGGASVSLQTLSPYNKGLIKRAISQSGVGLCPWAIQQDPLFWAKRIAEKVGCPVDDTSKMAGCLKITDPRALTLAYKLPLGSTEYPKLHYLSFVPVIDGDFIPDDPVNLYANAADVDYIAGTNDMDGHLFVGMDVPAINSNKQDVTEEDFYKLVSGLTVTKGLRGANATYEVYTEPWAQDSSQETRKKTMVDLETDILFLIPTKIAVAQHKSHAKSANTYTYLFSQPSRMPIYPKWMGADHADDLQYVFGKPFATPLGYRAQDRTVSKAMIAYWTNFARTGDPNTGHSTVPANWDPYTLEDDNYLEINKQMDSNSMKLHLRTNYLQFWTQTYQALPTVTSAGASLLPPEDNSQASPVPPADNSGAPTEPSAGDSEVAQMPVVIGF
Method: 2. The ability of the compounds of this invention to inhibit the formation of cholesteryl esters and thereby interfere with and prevent assimilation of cholesterol into the lymphatic system and ultimately the blood stream was established by incubating the compounds at 37C. with a mixture of cholesterol and oleic acid in the presence of buffered cholesterol esterase [(EC 3.1.1.13) Sigma Company, St. Louis, Mo., U.S.A., No. C-1892, from bovine pancreas] and measuring the amount of ester formed, according to the procedure of Field. J. of Lipid Research, 25, 389 (1984).

[2] = tested on: absorption of 14C-cholesterol; assay: in vivo cholesterol absorption studies in normal rats ([4-14C] cholesterol); details: Rattus norvegicus, read-out: Effect on Absorption of 14C-chol. - 6 hr - normal, % Decrease; for inhibition in vivo at 10 mg/kg: 10 mg/kg oral; for inhibition in vivo at 3 mg/kg: 3 mg/kg oral
Method: The in vivo cholesterol absorption studies were conducted in normal rats by oral administration of the compound being tested in propylene glycol and olive oil followed by oral administration of [4-^14 C] cholesterol in propylene glycol and olive oil, otherwise following the procedure of Cayen et al., J. Lipid Res. 20 162 (1979). The serum radioactivity was measured at six hours after dosing. The results of this study are reported in the following table as percent decrease compared to control at the dose stated.

[3] = tested on: acyl-coenzyme A: cholesterol acyltransferase (ACAT); assay: inhibition of acyl-coenzyme A: cholesterol acyltransferase (intracellular cholesterol esterification, procedure of Ross et al.); format: cell-based; details: for IC50: read-out: ACAT IC50
Method: 1. The ability of the compounds of this invention to inhibit acyl-coenzyme A: cholesterol acyltransferase was established by initially showing that they inhibited intracellular cholesterol esterification by subjecting them to the standard experimental test procedure of Ross et al., J. Biol. Chem. 259, 814 (1984). The results are reported in the following table, where available, in terms of the percent inhibition at 25 μM and the IC50 (μM).

[4] = 37C, cholesterol and oleic acid, buffered cholesterol esterase from bovine pancreas, read-out: CEH IC50
[5] = normal rats, serum radioactivity at 6 hr, vs control
[6] = 20 mg/kg oral, normal rats, serum radioactivity at 6 hr, vs control

## CCCCCCCCCNC(=O)OCCCNC(=O)OC1CCN(C(=O)Oc2ccc(Oc3ccccc3)cc2)CC1 [Example 18, 4-[3-(Nonylcarbamoyloxy)-propylcarbamoyloxy]-piperidine-1-carboxylic acid 4-phenoxyphenyl ester]
[1]; [4]
  IC50: 510 nM
[2]; [5]
  inhibition in vivo at 10 mg/kg: 50%

## O=C(NCCCCCCOC(=O)N1CCC2(CCCC2)CC1)OC1CCN(C(=O)Oc2ccc(Oc3ccccc3)cc2)CC1 [Example 12, 8-Aza-spiro[4,5]decane-8-carboxylic acid 6-{[1-(4-phenoxy-phenoxycarbonyl)-piperidine-4-oxycarbonyl]amino}-hexyl ester]
[3]
  ACAT % inhibition at 25 μM: 83%
  IC50: 1720 nM
[1]; [4]
  IC50: 310 nM
[2]; [5]
  inhibition in vivo at 10 mg/kg: 76%

## CCCCCCNC(=O)OCCCCCCNC(=O)OC1CCN(C(=O)Oc2ccc(Oc3ccccc3)cc2)CC1 [Example 6, 4-[6-(Hexylcarbamoyloxy)-hexylcarbamoyloxy]-piperidine-1-carboxylic acid 4-phenoxyphenyl ester]
[3]
  ACAT % inhibition at 25 μM: 97%
  IC50: 1780 nM
[1]; [4]
  IC50: 420 nM
[2]; [5]
  inhibition in vivo at 3 mg/kg: 59%

## CCCCCCCN(Cc1ccc(CC(C)(C)C)cc1)C(=O)OCCCCCCNC(=O)OC1CCN(C(=O)Oc2ccc(Oc3ccccc3)cc2)CC1 [Example 11, 4-{6-[(4-(2,2-Dimethyl-propyl)-benzyl)-heptyl-carbamoyloxy]-hexyl-carbamoyloxy}-piperidine-1-carboxylic acid 4-phenoxyphenyl ester]
[3]
  ACAT % inhibition at 25 μM: 24%
[1]; [4]
  IC50: 28200 nM
[2]; [6]
  inhibition in vivo at 20 mg/kg: 6%

## O=C(NCCCCCCOC(=O)N1CCCCC1)OC1CCN(C(=O)Oc2ccc(Oc3ccccc3)cc2)CC1 [Example 8, 4-[6-(Piperidine-1-carbonyloxy)-hexylcarbamoyloxy]-piperidine-1-carboxylic acid 4-phenoxyphenyl ester]
[3]
  ACAT % inhibition at 25 μM: 98%
  IC50: 2340 nM
[1]; [4]
  IC50: 540 nM
[2]; [5]
  inhibition in vivo at 3 mg/kg: 65%

## CCCCCCCC/C=C\CCCCCCCCNC(=O)OCCCCCCNC(=O)OC1CCN(C(=O)Oc2ccc(Oc3ccccc3)cc2)CC1 [Example 13]
[3]
  ACAT % inhibition at 25 μM: 47%
[1]; [4]
  IC50: 15500 nM
[2]; [6]
  inhibition in vivo at 20 mg/kg: 20%

## CCCCCCN(CCCCCC)C(=O)OCCCCCCNC(=O)OC1CCN(C(=O)Oc2ccc(Oc3ccccc3)cc2)CC1 [Example 7]
[3]
  ACAT % inhibition at 25 μM: 76%
  IC50: 6410 nM
[1]; [4]
  IC50: 670 nM
[2]; [6]
  inhibition in vivo at 20 mg/kg: 42%

## CCCCCCNC(=O)OCCCNC(=O)OC1CCN(C(=O)Oc2ccc(Oc3ccccc3)cc2)CC1 [Example 16, 4-[3-(Hexylcarbamoyloxy)-propylcarbamoyloxy]-piperidine-1-carboxylic acid 4-phenoxyphenyl ester]
[1]; [4]
  IC50: 730 nM
[2]; [5]
  inhibition in vivo at 10 mg/kg: 68%

## CCCCCCNC(=O)OCCCCCCCCCCCCNC(=O)OC1CCN(C(=O)Oc2ccc(Oc3ccccc3)cc2)CC1 [Example 10, 4-[12-(Hexylcarbamoyloxy)-dodecylcarbamoyloxy]-piperidine-1-carboxylic acid 4-phenxoyphenyl ester]
[3]
  ACAT % inhibition at 25 μM: 83%
  IC50: 5000 nM
[1]
  IC50: 620 nM
[2]; po, 6 h
  inhibition in vivo at 20 mg/kg: 22%

## CCCCCCCC/C=C\CCCCCCCCNC(=O)OCCCCCCCCCCCCNC(=O)OC1CCN(C(=O)Oc2ccc(Oc3ccccc3)cc2)CC1 [Example 14, (Z)-4-[12-(Octadec-9-enylcarbamoyloxy)-dodecylcarbamoyloxy]-piperidine-1-carboxylic acid 4-phenoxyphenyl ester]
[3]
  ACAT % inhibition at 25 μM: 41%
[1]; [4]
  IC50: > 100000 nM
[2]; [6]
  inhibition in vivo at 20 mg/kg: 2%

## O=C(NCCCCCCOC(=O)N(Cc1ccccc1)Cc1ccccc1)OC1CCN(C(=O)Oc2ccc(Oc3ccccc3)cc2)CC1 [Example 9]
[3]
  ACAT % inhibition at 25 μM: 95%
  IC50: 1590 nM
[1]; [4]
  IC50: 80 nM
[2]; [5]
  inhibition in vivo at 10 mg/kg: 49%
